Measurements published in paper PMC8507746, “The FHP01 DDX3X Helicase Inhibitor Exerts Potent Anti-Tumor Activity In Vivo in Breast Cancer Pre-Clinical Models” (Cancers, 2021).
Several values for one entry are separate records, joined by “and”; a condition that tells them apart may be missing. Equal entries are not always repeated.

Columns and labels:
[1] = target: T1, HA-DDX3X immunoprecipitated from 293T cells (Homo sapiens, UniProt O00571); experiment: Qualitative in vitro helicase assay with immunoprecipitated HA-DDX3X (dsRNA unwinding); type: biochemical; conditions: human protein immunoprecipitated from 293T cells
T1 construct: host or cells: 293T cells, transient transfection, anti-HA immunoprecipitation; protein used on beads
T1 sequence (O00571 whole entry): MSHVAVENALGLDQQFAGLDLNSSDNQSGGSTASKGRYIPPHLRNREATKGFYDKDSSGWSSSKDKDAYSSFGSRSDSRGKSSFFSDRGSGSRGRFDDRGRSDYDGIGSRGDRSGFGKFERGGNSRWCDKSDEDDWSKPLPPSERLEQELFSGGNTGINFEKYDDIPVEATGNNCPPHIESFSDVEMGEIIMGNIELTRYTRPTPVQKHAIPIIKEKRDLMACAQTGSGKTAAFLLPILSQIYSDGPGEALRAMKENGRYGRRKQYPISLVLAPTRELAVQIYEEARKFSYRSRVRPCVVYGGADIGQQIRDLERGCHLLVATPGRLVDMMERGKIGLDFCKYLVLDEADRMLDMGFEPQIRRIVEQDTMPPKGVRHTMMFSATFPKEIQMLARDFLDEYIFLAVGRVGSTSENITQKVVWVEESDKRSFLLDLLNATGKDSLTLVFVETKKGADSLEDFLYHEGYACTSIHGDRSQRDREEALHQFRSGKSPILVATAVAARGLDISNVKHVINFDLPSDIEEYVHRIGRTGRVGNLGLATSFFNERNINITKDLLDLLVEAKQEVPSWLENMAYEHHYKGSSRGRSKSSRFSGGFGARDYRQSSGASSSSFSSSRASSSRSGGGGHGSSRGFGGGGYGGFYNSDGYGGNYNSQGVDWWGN
Description: 293T cells (3 × 10^5) were seeded in 6-well plates and, after 24 h, transfected with 1 μg of HA-DDX3 (Addgene plasmid # 44975) by using the Lipofectamine reagent (Thermo Fischer Scientific, Waltham, MA, USA). After 36 h, cells were lysed in NP-40 Lysis Buffer (20 mM HEPES pH = 7.5, 10 mM EGTA pH = 8, 40 mM β-glycerolphosphate, 1% NP40, 2.5 mM MgCl2, 2 mM Orthovanadate, 2 mM NaF, 1 mM DTT, and 1X protease inhibitors mixture) and 2 mg of proteins were immunoprecipitated with anti-HA antibodies (Covance, Princeton, NJ, USA) in NP40 lysis buffer. Immunoprecipitated samples were washed twice with lysis buffer and one time in helicase reaction buffer (50 mM Tris HCl pH = 8, 1 mM DTT, 5% glycerol, 10 mM MgCl2). Beads were then resuspended in 100 μL in helicase reaction buffer. […]
Ultimately, reactions were performed in a final volume 100 μL of helicase reaction buffer plus ATP 4 mM, 30 μL of beads used to immunoprecipitate HA-DDX3X, 20 nM of 18/36mer dsRNA, and 100 nM of competitor at 37 °C for 1 h and stopped by adding 10 μL of a stopping solution (EDTA 60 mM pH = 8, 40% glycerol, 0,6% SDS, 1% Orange G). […] Quantification of the ssRNA was performed by the ImageJ software (National Institutes of Health, Bethesda, MD, USA).

[2] = test system: PBMCs; experiment: Cell viability assay in peripheral blood mononuclear cells; type: cell-based; conditions: up to a concentration of 50 μM, 72 h
Description: Two days before the assay, phytohemagglutinin-A (PHA) 2 µg/mL was added to the PBMC culture. Cells were seeded at 13 × 10^4 cells/well in triplicate and maintained at 37 °C in 5% CO2. After 24 h, cells were treated with 10 μM and 50 μM of indicated drugs. After 72 h incubation, cells were washed in PBS and harvested. Cell number of each sample was determined with Z2 Coulter Counter (Beckman Coulter), in triplicate. Data about cell viability were plotted in GraphPad Prism 8.0 software 100% viability corresponding to vehicle (DMSO) treated PBMCs.

[3] = test system: DDX3X and β-catenin in MDA MB 231 tumors; experiment: Western blot of DDX3X and β-catenin in tumors from treated mice; type: in vivo, athymic nude mice; conditions: 45 mg/kg i.p. three times per week for 4 weeks, individual tumors
Description: Cells (1 × 10^5) were seeded in 6-well plates. After 24 h, cells were treated for indicated times with DMSO (vehicle) or FHP01 or XAV939 (Merck). After treatments, cells were washed with cold PBS and total protein extracts obtained by adding 80 µL of “RIPA Lysis buffer” (50 mM Tris-HCl pH 8.0, 150 mM NaCl, 0.5% Sodium deoxycholate, 0.1% SDS, 1% NP-40, 2 mM Orthovanadate, 2mM Sodium fluoride, 1mM Dithiothreitol and 1× protease inhibitors). After mechanicals detachment with cell scrapers, total lysates were collected in tubes, vortexed, and incubated for 15 min on ice. Tumors from mice were collected and disrupted by bead homogenization in Lysing Matrix D tubes using a FastPrep-24 5G homogenizer (MP Biomedicals, Solon, OH, USA) filled with “RIPA Lysis buffer” w:v. Next, samples were centrifuged for 10 min at 16,000× g, and supernatants were collected, representing total cell lysates.
Densitometric analysis of western blots was performed with NIH Image J (National Institutes of Health).

[4] = test system: DDX3X; parameters: method as in earlier work; conditions: in vitro enzymatic activity; read-out: IC50, DDX3X helicase activity; cited from earlier work

## CCCCc1cn(-c2ccc(NC(=O)Nc3ccccc3C(F)(F)F)cc2)nn1 [FHP01]
[1]
  inhibition of DDX3X helicase activity, qualitative: activity comparable to RK33
[2]
  effect on viability of normal PBMC: no effect
[3]; Ctrl 0.64, 1.00, 0.60
  DDX3X : ERK2 in tumors: 0.01 (2×) and 0.13
[3]; Ctrl 0.64, 1.00, 0.89
  β-Catenin : ERK2 in tumors: 0.64 and 0.79 and 0.70
[4]
  IC50: 300 nM
